Experimental findings from patent US20250163056A1, “NONMUSCLE MYOSIN II INHIBITORS” (The University of Florida Research Foundation, Inc., priority 2018, published 2025) are described below.

For series [1], the target named is Bovine cardiac myosin (Bos taurus (Bovine), UniProt Q9BE39). The series is described as follows: Cardiac muscle myosin II actin-activated ATPase assay (NADH-coupled). The class given is biochemical. In a few lines:
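Inhibitory constants came from a quadratic one-to-one binding fit of 16-point dose-responses (highest final 50 uM, triplicate). Rates were NADH-calibrated fluorescence slopes over 30 min at 25° C, with 300 nM bovine cardiac myosin, 10 μM actin and 1 mM ATP coupled through PK/LDH in pH 7.0 MOPS buffer.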

Series [2] concerns the target nonmuscle myosin II (Chlorocebus sabaeus, UniProt A0A0D9RDH4). In words: Cytokinesis cell-based assay of nonmuscle myosin II function in COS7 cells. The following applies: read-out: NMII EC50. On the procedure: Cytokinesis is a cell-based assay to assess nonmuscle myosin II function, performed using COS7 cells. The assay is run in a 96 well plate, with 2,000 cells plated per well. Total incubation time is 48 hours, with 24 hours of treatment with the compound of interest. Prior to treatment with small molecules, a two-fold dilution series of compound solutions is prepared in DMSO. Starting concentrations are determined based on compound solubility. Compound solutions are further diluted in DMEM medium to a final DMSO concentration of 2% (50-fold dilution). Subsequently, 100 μl diluted solution is transferred to each well of the plate containing 100 μl of cell culture (achieving 1% final DMSO concentration). All measurements are carried out in triplicate. Cells are stained by fluorescein diacetate (6 μM), a cell viability dye, the cell-permeant Hoescht33342 (10 μM) and the membrane-impermeant propidium iodide (4 μM) to label all nuclei and those belonging to dead cells, respectively. Dye solutions are replaced by fresh media after 10 minutes of incubation. An INCell Analyzer 6000 is used for imaging. […] Cytotoxicity is also assayed and quantified as the ratio of dead nuclei to total nuclei. […] Half maximal effective concentration (EC50) is determined by fitting the 6-point dose-response data to the Hill equation.

Series [3] has as its system hiPS cardiomyocytes (Cor.4U CMs). In words: Cardiac safety assay 1: beating parameters of cardiomyocytes (xCELLigence RTCA Cardio). The following applies: hiPS-derived cardiomyocytes, 1 uM, 15 min. The format is cell-based, human. On the procedure: The spontaneous contractions of cardiomyocytes (CMs) is measured label-free in real time using the ACEA xCELLigence RTCA Cardio instrument. All measurements are performed at 37° C. in a cell culture incubator, allowing for spontaneous beating of CMs at physiological conditions. Cor.4U CMs are seeded at 3×10^4 cells/well in 180 μl/well maintenance medium. Prior to seeding, a background impedance measurement (plate plus medium) is performed. The contraction of CMs involves cyclic modulation of cell morphology and adhesion inducing a delta change in impedance. From the cyclic changes in impedance a beating frequency, amplitude and effects on beating pattern can be calculated. Time point “0” (baseline) is recorded 10× for 20 seconds at 1 minute intervals. Thereafter, compounds and control (0.1% DMSO) are added to the wells and effects are measured 30 minutes later. Vehicle control is 0.1% DMSO and positive control is 100 nM isoproterenol. Compounds are tested at 0.1, 0.3, 1.0 and 3.0 uM. Data is collected at 5, 10, 15, 20 and 30 minutes, and 1, 4, 6, 12 and 24 hours post-incubation.

Sequence of Bovine cardiac myosin (Q9BE39 whole entry): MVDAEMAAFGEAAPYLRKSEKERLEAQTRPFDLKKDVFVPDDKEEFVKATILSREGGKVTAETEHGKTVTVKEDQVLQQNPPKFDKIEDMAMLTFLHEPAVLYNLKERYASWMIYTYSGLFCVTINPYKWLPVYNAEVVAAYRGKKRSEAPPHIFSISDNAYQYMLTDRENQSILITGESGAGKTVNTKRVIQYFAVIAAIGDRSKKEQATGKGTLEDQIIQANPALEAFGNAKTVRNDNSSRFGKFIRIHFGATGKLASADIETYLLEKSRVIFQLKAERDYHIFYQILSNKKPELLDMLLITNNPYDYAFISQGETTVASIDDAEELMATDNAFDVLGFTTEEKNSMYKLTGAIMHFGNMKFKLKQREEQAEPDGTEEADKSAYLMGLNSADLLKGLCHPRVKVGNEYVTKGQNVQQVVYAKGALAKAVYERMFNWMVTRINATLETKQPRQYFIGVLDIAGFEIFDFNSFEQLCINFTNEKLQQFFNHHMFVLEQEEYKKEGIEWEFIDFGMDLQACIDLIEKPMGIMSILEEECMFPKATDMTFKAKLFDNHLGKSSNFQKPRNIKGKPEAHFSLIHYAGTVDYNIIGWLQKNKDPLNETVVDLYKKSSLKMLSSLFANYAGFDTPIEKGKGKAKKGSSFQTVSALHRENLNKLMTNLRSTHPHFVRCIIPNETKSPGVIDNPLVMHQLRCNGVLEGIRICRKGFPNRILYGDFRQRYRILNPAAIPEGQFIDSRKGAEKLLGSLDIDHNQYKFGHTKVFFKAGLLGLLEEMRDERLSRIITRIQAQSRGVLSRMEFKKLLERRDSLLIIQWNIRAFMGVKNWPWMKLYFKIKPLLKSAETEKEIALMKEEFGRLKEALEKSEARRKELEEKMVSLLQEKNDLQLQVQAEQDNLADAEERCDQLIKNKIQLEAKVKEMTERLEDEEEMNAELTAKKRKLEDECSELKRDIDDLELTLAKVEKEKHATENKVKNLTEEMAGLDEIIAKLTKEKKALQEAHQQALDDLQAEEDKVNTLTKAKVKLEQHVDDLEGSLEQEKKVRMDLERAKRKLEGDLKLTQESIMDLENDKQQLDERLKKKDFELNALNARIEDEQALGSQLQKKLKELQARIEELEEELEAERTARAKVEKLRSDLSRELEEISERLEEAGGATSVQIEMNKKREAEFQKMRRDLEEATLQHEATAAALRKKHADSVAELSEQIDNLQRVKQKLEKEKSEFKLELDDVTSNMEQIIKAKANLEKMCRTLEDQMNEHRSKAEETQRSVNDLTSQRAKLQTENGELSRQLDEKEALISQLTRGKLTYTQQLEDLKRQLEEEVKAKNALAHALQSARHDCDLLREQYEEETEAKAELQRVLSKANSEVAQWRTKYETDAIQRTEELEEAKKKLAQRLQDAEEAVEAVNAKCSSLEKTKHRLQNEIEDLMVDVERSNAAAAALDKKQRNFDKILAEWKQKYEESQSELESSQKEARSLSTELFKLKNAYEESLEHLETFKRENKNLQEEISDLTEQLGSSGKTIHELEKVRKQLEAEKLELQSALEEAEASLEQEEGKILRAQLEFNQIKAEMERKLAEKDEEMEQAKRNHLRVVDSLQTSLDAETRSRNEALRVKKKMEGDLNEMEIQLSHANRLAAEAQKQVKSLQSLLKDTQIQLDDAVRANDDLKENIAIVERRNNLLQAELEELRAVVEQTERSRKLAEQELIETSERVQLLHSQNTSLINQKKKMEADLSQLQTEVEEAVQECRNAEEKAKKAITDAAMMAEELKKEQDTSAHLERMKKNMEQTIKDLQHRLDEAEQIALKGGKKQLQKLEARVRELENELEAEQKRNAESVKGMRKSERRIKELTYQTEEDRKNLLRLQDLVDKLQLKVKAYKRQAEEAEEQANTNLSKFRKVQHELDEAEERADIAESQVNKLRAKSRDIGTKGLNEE
Sequence of Bovine cardiac myosin (P85100 whole entry partner): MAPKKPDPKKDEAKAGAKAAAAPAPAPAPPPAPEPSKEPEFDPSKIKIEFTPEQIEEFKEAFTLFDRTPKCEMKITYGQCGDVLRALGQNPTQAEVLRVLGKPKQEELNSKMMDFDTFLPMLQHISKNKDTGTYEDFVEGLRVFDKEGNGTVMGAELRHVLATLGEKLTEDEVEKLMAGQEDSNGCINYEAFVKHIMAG
Sequence of Bovine cardiac myosin (Q3SZE5 whole entry partner): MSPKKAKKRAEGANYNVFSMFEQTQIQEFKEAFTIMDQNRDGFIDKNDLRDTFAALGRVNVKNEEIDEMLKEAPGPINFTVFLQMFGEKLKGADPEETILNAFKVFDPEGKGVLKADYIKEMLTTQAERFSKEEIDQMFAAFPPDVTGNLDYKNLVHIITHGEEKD
Sequence of nonmuscle myosin II (A0A0D9RDH4 1-1976): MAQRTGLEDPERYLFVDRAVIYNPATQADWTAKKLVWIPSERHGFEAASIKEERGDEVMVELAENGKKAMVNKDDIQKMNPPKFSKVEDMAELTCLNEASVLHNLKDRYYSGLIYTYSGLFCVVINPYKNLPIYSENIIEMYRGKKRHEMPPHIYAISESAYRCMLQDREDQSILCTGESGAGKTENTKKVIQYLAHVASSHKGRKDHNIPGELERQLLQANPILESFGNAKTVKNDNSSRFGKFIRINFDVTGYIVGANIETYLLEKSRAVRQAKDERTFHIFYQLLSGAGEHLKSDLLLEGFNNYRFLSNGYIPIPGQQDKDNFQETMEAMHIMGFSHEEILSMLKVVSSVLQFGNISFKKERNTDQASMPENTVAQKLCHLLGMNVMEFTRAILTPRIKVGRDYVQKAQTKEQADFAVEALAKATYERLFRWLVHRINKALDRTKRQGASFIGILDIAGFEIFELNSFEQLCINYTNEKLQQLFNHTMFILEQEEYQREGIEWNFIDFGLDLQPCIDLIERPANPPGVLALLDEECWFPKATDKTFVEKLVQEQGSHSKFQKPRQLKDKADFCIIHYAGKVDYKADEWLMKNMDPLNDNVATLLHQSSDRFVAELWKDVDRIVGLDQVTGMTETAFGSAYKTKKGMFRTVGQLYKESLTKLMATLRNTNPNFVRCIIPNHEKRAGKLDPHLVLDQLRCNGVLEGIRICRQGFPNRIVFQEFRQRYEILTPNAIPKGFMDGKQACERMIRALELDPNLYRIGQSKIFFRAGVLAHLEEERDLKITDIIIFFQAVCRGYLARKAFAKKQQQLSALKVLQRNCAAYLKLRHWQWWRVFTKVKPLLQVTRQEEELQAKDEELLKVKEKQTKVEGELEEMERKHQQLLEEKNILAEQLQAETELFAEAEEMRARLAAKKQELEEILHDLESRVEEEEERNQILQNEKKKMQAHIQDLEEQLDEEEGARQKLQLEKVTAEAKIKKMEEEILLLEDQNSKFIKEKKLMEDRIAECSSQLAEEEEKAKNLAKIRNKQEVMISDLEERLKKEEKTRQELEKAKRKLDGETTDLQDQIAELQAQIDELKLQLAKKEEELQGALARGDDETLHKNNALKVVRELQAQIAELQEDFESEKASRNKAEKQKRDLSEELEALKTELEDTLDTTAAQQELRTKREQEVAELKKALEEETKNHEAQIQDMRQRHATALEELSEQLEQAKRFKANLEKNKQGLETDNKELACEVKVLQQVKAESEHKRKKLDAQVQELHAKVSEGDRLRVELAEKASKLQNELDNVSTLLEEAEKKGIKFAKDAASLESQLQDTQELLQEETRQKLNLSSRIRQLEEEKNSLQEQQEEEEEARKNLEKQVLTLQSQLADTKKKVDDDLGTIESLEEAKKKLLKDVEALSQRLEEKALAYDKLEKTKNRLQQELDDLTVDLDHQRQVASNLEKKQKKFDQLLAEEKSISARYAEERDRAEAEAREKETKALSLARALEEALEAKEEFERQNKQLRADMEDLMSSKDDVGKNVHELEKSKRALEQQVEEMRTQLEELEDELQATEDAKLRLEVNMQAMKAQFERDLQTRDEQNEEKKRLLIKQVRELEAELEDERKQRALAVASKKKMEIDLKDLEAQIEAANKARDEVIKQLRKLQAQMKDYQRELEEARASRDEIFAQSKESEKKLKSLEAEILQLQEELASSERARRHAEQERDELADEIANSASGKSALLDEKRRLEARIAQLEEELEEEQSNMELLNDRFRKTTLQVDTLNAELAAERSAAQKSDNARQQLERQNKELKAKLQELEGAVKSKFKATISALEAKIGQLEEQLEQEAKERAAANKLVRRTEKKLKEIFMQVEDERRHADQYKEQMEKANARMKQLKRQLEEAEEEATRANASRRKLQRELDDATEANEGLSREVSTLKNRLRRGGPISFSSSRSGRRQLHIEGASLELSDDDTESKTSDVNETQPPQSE

Regarding `O=C1c2cc(Cl)ccc2N=C2N(c3ccccc3)CC[C@@]12O` [BPN-0025002], the “CMMII/NMII Ratio” value in series [1] (cardiac Ki relative to NMII EC50) was found to be 0.76. Further, in series [1] (cardiac muscle myosin II, read-out: CMMII Ki), the inhibition constant (Ki) (in general, the equilibrium dissociation constant of an inhibitor or competing ligand from its target) was 1970 nM. The EC50 – broadly, the concentration that produces a half-maximal response – in series [2] was determined as 2600 nM. The “Change in amplitude at 1 uM @ 15 min” value in series [3] was −38.9 ± 2.4%.
